# Reference: US11357817B2, “Immunoproteasome inhibitor” (The Regents of the University of California, priority 2017, dated 2022)
# Columns and labels:
# [1] = tested on: P. falciparum Dd2; experiment: P. falciparum Dd2 asexual blood stage SYBR Green I compound sensitivity assay; format: cell-based, Plasmodium falciparum; settings: for IC50: Plasmodium falciparum, DD2, 72 h, asexual blood stage, 72 hour SYBR green assay; for Selectivity Index: P. falciparum activity versus HepG2 activity
# Method: P. falciparum Dd2 strain parasites were cultured under standard conditions (31), using RPMI media supplemented with 0.05 mg/ml gentamycin, 0.014 mg/mL hypoxanthine (prepared fresh), 38.4 mM HEPES, 0.2% Sodium Bicarbonate, 3.4 mM Sodium Hydroxide, 0.05% O+ Human Serum (Denatured at […] for 40 min and From Interstate Blood Bank, Memphis, Tenn.) and 0.0025% Albumax). Human O+ whole blood was obtained from TSRI blood bank (La Jolla, Calif.). Leukocyte-free erythrocytes are stored at 50% hematocrit in RPMI-1640 screening media (as above, but without O+ human serum and with 2× albumax concentration) at 4° C. for one to three weeks before experimental use. Cultures were monitored every one to two days via Giemsa-stained thin smears.
# (§1) Compound susceptibility was measured using the malaria SYBR Green I-based fluorescence assay (32). Asynchronous P. falciparum parasites (Dd2 strain) were cultured in standard conditions before being plated for the assays. Each compound was tested over 72 hours in technical duplicates on a twelve-point concentration curve prepared by three-fold dilution from 6.7 μM to 0.11 nM. At least three independent experiments were carried out for IC50 determination. Artemisinin and chloroquine were used as controls. IC50 values were obtained using normalized fluorescence intensity from SYBR green I and analyzed via non-linear variable slope four-parameter regression curve-fitting model in Prism 6 (GraphPad Software Inc).
# [2] = tested on: HepG2 cells; experiment: HepG2 cytotoxicity assay; format: cell-based; settings: Homo sapiens
# Method: The liver-stage and HepG2 toxicity assays were performed as previously reported (35). Briefly, HepG2-A16-CD81EGFP, human hepatocarcinoma HepG2 cells stably transformed to express the tetraspanin CD81 receptor (36, 37) and thus susceptible to P. berghei infection, were cultured at 37° C. in 5% CO2 in DMEM (Life Technologies, Calif.) supplemented with 10% FBS, 0.29 mg/ml glutamine, 100 unit penicillin and 100 μg/ml streptomycin. For both the P. berghei-luciferase and HepG2 cytotoxicity assays, 3×10^3 of the HepG2-A16-CD81EGFP cells in 5 μl of assay medium (DMEM without Phenol Red (Life Technologies, Calif.), 5% FBS, and 5× Pen Strep Glutamine (Life Technologies, Calif.)) at concentration 6×10^5 cells/ml were seeded in 1536-well plates (Greiner BioOne white solid bottom custom GNF mold) 20-26 hours prior to the actual infection. 18 hours prior to infection, 50 nl of compound in DMSO (0.5% final DMSO concentration per well) were transferred with Acoustic Transfer System (ATS) (Biosero) into the assay plates. Atovaquone (12-point serial dilution starting at 10 μM) and Puromycin (12-point serial dilution starting at 10 μM) were used as positive controls for Pb. liver stage assay and HepG2 cytotoxicity respectively. 0.5% DMSO was used as negative control for the both assays.
# An. stephensi mosquitoes, infected with P. berghei-luciferase, were provided by the New York University Insectary. P. berghei-luciferase sporozoites were freshly dissected from the infected A. stephensi mosquito salivary glands, filtered twice through a 20 μm nylon net filter using Steriflip Vacuum-Driven Filtration System (Millipore), counted in a hemocytometer, and then adjusted to final concentration 200 sporozoites per μl in the assay media. […] The HepG2-A16-CD81EGFP cell designated for toxicity studies were left uninfected, with 5 ul of additional assay media added to each well to maintain equal concentrations of compounds with P. berghei-luciferase infected plates. After incubation at 37° C. for 48 hours the exoerythrocytic growth and HepG2-A16-CD81EGFP cell viability were quantified by a bioluminescence measurement.
# The HepG2 cytotoxicity was assessed by removing the media through an inverted spin of the plates at 150 g for 30 s and addition of 2 μL of CellTiterGlo reagent (Promega diluted 1:2 with deionized water) per well using the MicroFlo liquid handler (BioTek). Immediately after addition of the luminescence reagent, the plates were vortexed for 10 s and read with an EnVision Multilabel reader (PerkinElmer). IC50 values were obtained as above.
# [3] = target: T1, c20S (Homo sapiens, UniProt P20618+P28074); experiment: Calculation of inhibition constants (inactivation kinetics), c20S; format: biochemical; settings: for Ki: c20S
# T1 construct: purchased Boston Biochem
# Method: (§2) The rate of AMC release was calculated in the presence of serial dilution of each inhibitor. The rate of product formation were calculated at 30 min intervals for 4 hours, and normalized to activity DMSO control to calculate inactivation curves. Kobs values for each inhibitor concentration were calculated from inactivation curves, and inhibition constants KI and kinact were calculated by non-linear regression of Kobs and inhibitor concentration using GraphPad Prism 6 software.
# [4] = target: Pf20S (Plasmodium falciparum, UniProt A0A5K1K7U1+Q8IJT1); experiment: Calculation of inhibition constants (inactivation kinetics), Pf20S; format: biochemical; settings: Pf20S
# Method: as §2
# [5] = tested on: Dd2 parasites; experiment: Artemisinin synergy, 72 hour SYBR green assay with co-treatment; format: cell-based, Plasmodium falciparum
# Method: as §1
# [6] = tested on: 20S Plasmodium proteasome (Pf20S) β5 subunit; experiment: Proteasome activity assay, Pf20S β5 (suc-LLVY-AMC); format: biochemical, Plasmodium falciparum; settings: 150 nM inhibitor
# Method: (§3) Asynchronous P. falciparum cultures were grown up to 4-5% parasitemia, in 300 mL of RPMI media at 5.0% hematocrit. Cultures were then transferred to 50 mL conical tubes, pelleted via centrifugation at 800 g for 5 min, and washed once with 1×PBS and pelleted again as above. The PBS was removed and lysis buffer (0.15% saponin in PBS) was added on ice in 10 pellet volumes. Upon lysis of red blood cells, indicated by a clear red supernatant, the lysed cultures were centrifuged at 3200×g for 12 minutes at 4° C. The supernatant was removed by aspiration and the cells were washed twice using chilled PBS in microcentrifuge tubes. The cell pellets were then incubated on ice for 1 hour with occasional vortexing in a buffer consisting of 20 mM Tris-HCl pH 7.5, 5 mM MgCl2, 1 mM DTT, 100 μM E-64 and 1 mM AEBSF. This sample was then subjected to 3 rounds of freezing (−80° C.) and thawing (37° C.) and centrifugation at 6000×g for 10 min. The supernatant containing soluble P. falciparum protein was quantified by the BCA method (Pierce).
# P. falciparum proteasome was enriched by two-chromatographic steps reported previously (10). In brief, 10 mg of P. falciparum protein was concentrated to 1 mL using a 100 kDa centrifugal filter unit (Amicon) and loaded onto a 5 mL anion exchange HiTrap DEAE FF column (GE Healthcare). […] The AMC fluorophore release was monitored at Ex 340/Em 465 nm at 24° C. using a Synergy HTX multi-mode reader (Biotek). […] Proteins were eluted using 20 mM Tris-HCl pH 7.5, 100 mM NaCl, 10% glycerol and 1 mL fractions were collected, evaluated for protease activity and pooled.
# To estimate the concentration of Pf20S in the final pooled sample, protein was denatured and loaded into a 4-12% Bis-Tris Plus gel (Thermo Fisher Scientific) beside 60 to 100 ng of human constitutive proteasome (Boston Biochem). […] For inhibition assays, inhibitor and substrate were added simultaneously to the enzyme and the rate of AMC release was determined from 60 to 120 minutes and compared to a DMSO control.
# [7] = tested on: 20S Plasmodium proteasome (Pf20S) β1 subunit; experiment: Proteasome activity assay, Pf20S β1 (z-LLE-AMC); format: biochemical, Plasmodium falciparum; settings: 150 nM inhibitor
# Method: as §3, with “Cultures were then transferred to 50 mL conical tubes, pelleted via centrifugation at 800 g for 5 min, and washed once with 1×PBS and pelleted again as above.” left out
# (§4) P. falciparum proteasome was enriched by two-chromatographic steps reported previously (10). […] The AMC fluorophore release was monitored at Ex 340/Em 465 nm at 24° C. using a Synergy HTX multi-mode reader (Biotek). […] Proteins were eluted using 20 mM Tris-HCl pH 7.5, 100 mM NaCl, 10% glycerol and 1 mL fractions were collected, evaluated for protease activity and pooled. […]
# [8] = tested on: 20S Plasmodium proteasome (Pf20S) β2 subunit; experiment: Proteasome activity assay, Pf20S β2 (z-LRR-AMC); format: biochemical; settings: 150 nM inhibitor
# Method: as §3, with “Cultures were then transferred to 50 mL conical tubes, pelleted via centrifugation at 800 g for 5 min, and washed once with 1×PBS and pelleted again as above.” left out
# as §4
# [9] = tested on: ABC16-Monster yeast cells; experiment: microbe, parasite or virus in culture; format: cell-based, S. cerevisiae; settings: Saccharomyces cerevisiae
# Method: ABC16-Monster yeast cells (15) were inoculated into 5 ml of liquid YPD media and grown to saturation (OD600>1.0) overnight at 200 RPM in a shaking incubator at 30° C. Cultures were diluted to OD600 0.005 to log phase. 100 μl of yeast cells were added to a 96-well plate and incubated with compound starting with a concentration of 150 μM, followed by 1:2 serial dilutions. An initial reading of OD600 (t=0 hrs) was recorded using a Synergy HT spectrophotometer, and cells were grown for a period of 18 hours at 30° C. After incubation, plates were read at OD600. Cells grown in the absence of compound were used as a negative control. Percent growth was calculated using the formula Ab600treated/Ab600control×100
# IC50 values were determined by first subtracting the OD600 values at t=0 from those of the final reading and then using Graphpad Prism to calculate nonlinear regression on log(inhibitor) vs. response with variable slope (four parameters).
# Each selection was cultured under vigorous shaking until the culture reached saturation. […] Single colonies were isolated, and IC50 assays were performed to determine the degree of evolved resistance vs. that of the parental strain.
# Pf20S, sequence (A0A5K1K7U1 entry or part of it): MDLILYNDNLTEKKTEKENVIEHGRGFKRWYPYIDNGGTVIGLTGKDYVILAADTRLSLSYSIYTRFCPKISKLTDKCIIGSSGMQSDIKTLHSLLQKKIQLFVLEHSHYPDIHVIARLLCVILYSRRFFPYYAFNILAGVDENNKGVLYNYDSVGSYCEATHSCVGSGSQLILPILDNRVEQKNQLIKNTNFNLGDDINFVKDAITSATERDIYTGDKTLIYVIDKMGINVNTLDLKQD
# Pf20S, sequence (Q8IJT1 entry or part of it): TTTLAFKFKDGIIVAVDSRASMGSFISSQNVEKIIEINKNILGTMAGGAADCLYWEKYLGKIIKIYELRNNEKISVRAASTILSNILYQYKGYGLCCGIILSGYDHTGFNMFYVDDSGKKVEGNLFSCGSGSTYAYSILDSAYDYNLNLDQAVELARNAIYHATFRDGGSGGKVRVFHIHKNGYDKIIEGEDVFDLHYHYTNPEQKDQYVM
IC50 [1],Structure (SMILES),IC50 [2],Ki [3],Ki [4],Selectivity Index [1],further results
0.00938 ± 0.000667 µM,"CCCCCC(=O)N[C@@H](Cc1c[nH]c2ccccc12)C(=O)N[C@@H](Cc1c[nH]c2ccccc12)C(=O)N[C@@H](Cc1ccccc1)C(=O)[C@@]1(C)CO1 [Analog 17, N—((S)-1-(((S)-3-(1H-indol-3-yl)-1-(((S)-1-((R)-2-methyloxiran-2-yl)-1-oxo-3-phenylpropan-2-yl)amino)-1-oxopropan-2-yl)amino)-3-(1H-indol-3-yl)-1-oxopropan-2-yl)hexanamide]",0.346 ± 0.0862 µM,–,–,36.89,–
0.00292 ± 0.000403 µM,"CCCCCC(=O)N[C@H](Cc1c[nH]c2ccccc12)C(=O)N[C@@H](CCCC)C(=O)N[C@@H](CC(C)C)C(=O)[C@@]1(C)CO1 [Analog 19, (S)-2-((R)-2-hexanamido-3-(1H-indol-3-yl)propanamido)-N—((S)-4-methyl-1-((R)-2-methyloxiran-2-yl)-1-oxopentan-2-yl)hexanamide]",0.915 ± 0.289 µM,–,–,313.36,"increase in selectivity ([1]; D-amino acid at P3 in place of L-Val of analog 1, comparator not stated): 100 fold"
–,"C[C@@H]1CC[C@H]2[C@@H](C)C(=O)O[C@@H]3O[C@@]4(C)CC[C@@H]1[C@]32OO4 [Artemisinin, artemisinin]",–,–,–,–,"IC50 ([5]; Plasmodium falciparum, DD2, wild-type parasites treated with ART alone): 0.0197 to 0.0233 µM"
–,CCCCCC(=O)N[C@H](C(=O)N[C@@H](CCS(C)(=O)=O)C(=O)N[C@@H](CC(C)C)C(=O)[C@@]1(C)CO1)C(C)C [Carmaphycin B],–,0.375 µM,0.223 µM,–,Pf20S β5 activity reduced [6]: 45%; Pf20S β1 activity reduced [7]: 16%; Pf20S β2 activity reduced [8]: 29%; IC50 ([9]; GM (parental ABC16-Monster strain)): 24.3 µM; IC50 ([9]; resistant Lineage 1): > 150 µM; IC50 ([9]; resistant Lineage 2): 52.7 µM; IC50 ([9]; resistant Lineage 3): > 100 µM; sensitization to ART ([5]; co-treatment with ART and 0.5 nM of the compound): 2 fold; sensitization to ART ([5]; co-treatment with ART and 1 nM of the compound): 3 fold

Structure (SMILES),IC50 [1],IC50 [2],Ki [3],Ki [4],Selectivity Index [1],further results
"CCCCCC(=O)N[C@H](C(=O)N[C@@H](CCCC)C(=O)N[C@@H](CC(C)C)C(=O)[C@@]1(C)CO1)C(C)C [Analog 1, (S)-2-((S)-2-hexanamido-3-methylbutanamido)-N—((S)-4-methyl-1-((R)-2-methyloxiran-2-yl)-1-oxopentan-2-yl)hexanamide]",0.00411 ± 7.7e-05 µM,0.134 ± 0.0867 µM,3.74 µM,2.29 µM,–,"loss in potency to c20S ([3]; kinact/Ki, analog 1 versus carmaphycin B): 3 fold"
